Measured values reported in patent US20230085307A1, “PYRIDAZINONE COMPOUND AND HERBICIDE” (NISSAN CHEMICAL CORPORATION, priority 2019, published 2023).

Key:
Chinese sprangletop = assay: Test Example 3: herbicidal effect by foliage application, Wagner pot (Table 18, symbol D); assay type: in vivo, chinese sprangletop (Leptochloa chinensis); conditions: 320 g/ha
How it was run: (§1)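 Plants were sown in alluvial soil held under 0.1–0.5 cm standing water and grown 14 days in a greenhouse at 25–30 °C. An emulsifiable formulation, water-diluted to the set dose, was then sprayed onto the foliage, and effects were scored three weeks later using previously defined criteria.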

chickweed [1] = assay: Test Example 5: herbicidal effect by foliage application, plastic box (Table 20, symbol P); assay type: in vivo, common chickweed (Stellaria media); conditions: foliage application, 320 g/ha, three weeks after application
How it was run: (§2)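 Post-emergence foliar test in sterilized diluvial soil. Compound applied as water-diluted emulsion at a predetermined rate to 14-day-old plants; evaluation at three weeks.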

redroot pigweed = assay: Test Example 5: herbicidal effect by foliage application, plastic box (Table 20, symbol N); assay type: in vivo, redroot pigweed (Amaranthus retroflexus); conditions: foliage application, 320 g/ha, three weeks after application
How it was run: as §2

wild oat [2] = assay: Test Example 4: herbicidal effect by soil treatment (Table 19, symbol I); assay type: in vivo, wild oat (Avena fatua); conditions: amount of applied herbicide 320 g/ha
How it was run: (§3)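 Emulsion of test compound, water-diluted to predetermined amount, sprayed on soil after sowing (seed depth ~1.5 cm, sterilized diluvial soil). Greenhouse, 25–30° C. Effect graded at three weeks post-spray.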

wild oat [3] = assay: Test Example 5: herbicidal effect by foliage application, plastic box (Table 20, symbol I); assay type: in vivo, wild oat (Avena fatua); conditions: foliage application, 320 g/ha, three weeks after application
How it was run: as §2

lambsquarters [4] = assay: Test Example 5: herbicidal effect by foliage application, plastic box (Table 20, symbol O); assay type: in vivo, lambsquarters (Chenopodium album); conditions: foliage application, 320 g/ha, three weeks after application
How it was run: as §2

Italian ryegrass [5] = assay: Test Example 5: herbicidal effect by foliage application, plastic box (Table 20, symbol K); assay type: in vivo, Italian ryegrass (Lolium multiflorum); conditions: foliage application, 320 g/ha, three weeks after application
How it was run: as §2

barnyard grass = assay: Test Example 5: herbicidal effect by foliage application, plastic box (Table 20, symbol H); assay type: in vivo, barnyard grass (Echinochloa crus-galli); conditions: foliage application, 320 g/ha, three weeks after application
How it was run: as §2

late watergrass [6] = assay: Test Example 2: herbicidal activity, application during weed generation under submerged conditions (Table 17, symbol A); assay type: in vivo, late watergrass (Echinochloa oryzicola); conditions: AAH 320 g/ha; application during weed generation, submerged conditions
How it was run: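 In this pot test, flooded alluvial soil (water depth 4 cm) holds all three species sown as a mixture. Once seedlings have one to two leaves, the compound's emulsion, thinned with water to the intended dose, is poured on the water; grading follows after three weeks on the earlier criteria.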

chickweed [7] = assay: Test Example 4: herbicidal effect by soil treatment (Table 19, symbol P); assay type: in vivo, common chickweed (Stellaria media); conditions: amount of applied herbicide 320 g/ha
How it was run: as §3

late watergrass [8] = assay: Test Example 1: herbicidal activity, application before weed generation under submerged conditions (Table 16, symbol A); assay type: in vivo, late watergrass (Echinochloa oryzicola); conditions: 320 g/ha applied herbicide
How it was run: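 Alluvial soil was flooded to 4 cm depth, weed seeds were sown mixed and 2.5-leaf rice seedlings were transplanted. On sowing day, the compound's emulsion, diluted in water to a set dose, was applied to the water surface. Plants grew at 25–30 °C and were scored 0–5 after three weeks.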

windgrass = assay: Test Example 4: herbicidal effect by soil treatment (Table 19, symbol L); assay type: in vivo, windgrass (Apera spica-venti); conditions: amount of applied herbicide 320 g/ha
How it was run: as §3

rice flat sedge = assay: Test Example 3: herbicidal effect by foliage application, Wagner pot (Table 18, symbol E); assay type: in vivo, rice flat sedge (Cyperus iria); conditions: 320 g/ha
How it was run: as §1

southern crabgrass = assay: Test Example 4: herbicidal effect by soil treatment (Table 19, symbol F); assay type: in vivo, southern crabgrass (Digitaria ciliaris); conditions: amount of applied herbicide 320 g/ha
How it was run: as §3

lambsquarters [9] = assay: Test Example 4: herbicidal effect by soil treatment (Table 19, symbol O); assay type: in vivo, lambsquarters (Chenopodium album); conditions: amount of applied herbicide 320 g/ha
How it was run: as §3

Italian ryegrass [10] = assay: Test Example 4: herbicidal effect by soil treatment (Table 19, symbol K); assay type: in vivo, Italian ryegrass (Lolium multiflorum); conditions: amount of applied herbicide 320 g/ha
How it was run: as §3

SMILES | herbicidal effect on D (Chinese sprangletop), rating 0-5 (Chinese sprangletop) | herbicidal effect grade, P: chickweed (chickweed [1]) | herbicidal effect grade, N: redroot pigweed (redroot pigweed) | herbicidal effect rating, I: wild oat (wild oat [2]) | herbicidal effect grade, I: wild oat (wild oat [3]) | herbicidal effect grade, O: lambsquarters (lambsquarters [4]) | herbicidal effect grade, K: Italian ryegrass (Italian ryegrass [5]) | herbicidal effect grade, H: barnyard grass (barnyard grass) | herbicidal effect rating, A: late watergrass (late watergrass [6]) | herbicidal effect rating, P: chickweed (chickweed [7]) | Herbicidal effect on A: late watergrass (grade 0-5) (late watergrass [8]) | herbicidal effect rating, L: windgrass (windgrass) | herbicidal effect on E (rice flat sedge), rating 0-5 (rice flat sedge) | herbicidal effect rating, F: southern crabgrass (southern crabgrass) | herbicidal effect rating, O: lambsquarters (lambsquarters [9]) | herbicidal effect rating, K: Italian ryegrass (Italian ryegrass [10])
CCCC(=O)Oc1c(C)nn(C)c(=O)c1-c1c(-c2ccc(OC(C)C)cc2)sc2ccccc12 [1-021] | 1 (Herbicidal rate of 5% or more and less than 20%) | 5 (Herbicidal rate of 90% or more (almost completely withered)) | 4 (Herbicidal rate of 70% or more and less than 90%) | 0 (Herbicidal rate of 5% or less (almost no effect)) | 0 (Herbicidal rate of 5% or less (almost no effect)) | 1 (Herbicidal rate of 5% or more and less than 20%) | 3 (Herbicidal rate of 40% or more and less than 70%) | 4 (Herbicidal rate of 70% or more and less than 90%) | 2 (Herbicidal rate of 20% or more and less than 40%) | 5 (Herbicidal rate of 90% or more (almost completely withered)) | 4 (Herbicidal rate of 70% or more and less than 90%) | 0 (Herbicidal rate of 5% or less (almost no effect)) | 5 (Herbicidal rate of 90% or more (almost completely withered)) | 0 (Herbicidal rate of 5% or less (almost no effect)) | 0 (Herbicidal rate of 5% or less (almost no effect)) | 1 (Herbicidal rate of 5% or more and less than 20%)
CCCCOc1ccc(-c2sc3ccccc3c2-c2c(O)c(C)nn(C)c2=O)cc1 [1-024] | 4 (Herbicidal rate of 70% or more and less than 90%) | 5 (Herbicidal rate of 90% or more (almost completely withered)) | 5 (Herbicidal rate of 90% or more (almost completely withered)) | 0 (Herbicidal rate of 5% or less (almost no effect)) | 4 (Herbicidal rate of 70% or more and less than 90%) | 5 (Herbicidal rate of 90% or more (almost completely withered)) | 4 (Herbicidal rate of 70% or more and less than 90%) | 5 (Herbicidal rate of 90% or more (almost completely withered)) | 4 (Herbicidal rate of 70% or more and less than 90%) | 4 (Herbicidal rate of 70% or more and less than 90%) | 5 (Herbicidal rate of 90% or more (almost completely withered)) | 0 (Herbicidal rate of 5% or less (almost no effect)) | 5 (Herbicidal rate of 90% or more (almost completely withered)) | 0 (Herbicidal rate of 5% or less (almost no effect)) | 5 (Herbicidal rate of 90% or more (almost completely withered)) | 0 (Herbicidal rate of 5% or less (almost no effect))
